Experimental findings from patent US20080092250A1, “Activity-induced pain in animal model of osteoarthritis” (priority 2006, published 2008) are described below.

The test system of data set [1] is osteoarthritic rats (unilateral i.a. MIA injection). Nature of the data set: Hind limb grip force (activity-induced pain) 20 days after i.a. MIA injection. It counts as in vivo, rat. The method, then: For evaluating the effects of reference analgesic drugs experiments were performed 20 days after induction of OA. Assessment of hind limb grip force was used as a behavioral measure of activity induced pain in adult OA rodents. Measurements of peak hind limb grip force were conducted by recording the maximum compressive force exerted on the hind limb strain gauge setup, in a commercially available grip force measurement system (Columbus Instruments, Columbus, Ohio). A group of age matched naïve animals were added to each experiment and the data obtained from the different dose groups for the compound being tested were compared to the naïve group.
(§1) All experiments have been approved by the Institutional Animal Care and Use Committee (IACUC) at Abbott Laboratories and are in strict accordance with the ethical guidelines laid down by the International Association for the Study of Pain (IASP) (Zimmermann, 1983) for the care and use of laboratory animals. […] Following injection, the animals were allowed to recover from the effects of anesthesia (usually 5-10 mins) before returning to their home cages. […] Animals were euthanized by CO2 inhalation on day 20. The injected knee joints were dissected and immediately fixed in 10% phosphate buffered formalin. The samples were then decalcified in 5% formic acid for 3 days, routinely processed and then embedded in paraffin wax. Frontal histologic sections of the femorotibial joints (6 μm) were prepared, stained with toluidine-blue and examined with a light microscope (Guzman et al., 2003).
(§2) Measurements of peak hind limb grip force were conducted by recording the maximum compressive force exerted on the hind limb strain gauge setup, in a commercially available grip force measurement system (Columbus Instruments, Columbus, Ohio). […] Additional tests were performed 1, 2, 4, 7, 10, 13, 17, 21, 24, and 28 days following the injections.
A group of age matched naïve animals were added to each experiment and the data obtained from the different dose groups for the compound being tested were compared to the naïve group. The vehicle control group for each compound being tested was assigned 0% whereas the naïve group was assigned as being 100% (normal). The % effects for each dose group was then expressed as % return to normalcy compared to the naïve group (=[100÷% increase from vehicle for naive group]×% increase from vehicle for treatment group) (% increase from vehicle=[Treatment CFmax−Vehicle CFmax)/Vehicle CFmax]×100). All experiments evaluating drug effects in this model were conducted in a randomized blinded fashion.

The test system of the next data set is naïve rats. Nature of the data set: Hind limb grip force in naïve (non-MIA injected) rats. Here is the method:
as §2

A further data set relates to rats. Particulars: 28 days after unilateral i.a. injection, 3 mg; baseline 1090.17±52.85 g. The method, then: as §1, §2
[2] abbreviates: Rattus norvegicus, po, 480 h; read-out: % effect (% return to normalcy of grip force).
Where [3] appears, read: Rattus norvegicus, po, 480 h; read-out: CI95% of ED50.
[4] abbreviates: Rattus norvegicus, po, 480 h; read-out: ED50, reversal of decreased grip force.

Where two headings read alike, the source gives them in different places.

In the case of `O=C(O)Cc1ccccc1Nc1c(Cl)cccc1Cl` [diclofenac], the inhibition in vivo at 100 µmol/kg in data set [1] (setting [2]) stood at 77 ± 5%. For the same compound, the ED50 was 22 to 38 µmol/kg in data set [1] (setting [3]) and 29 µmol/kg in data set [1] (setting [4]).
Consider `COc1cccc(C2(O)CCCCC2CN(C)C)c1` (stereo not shown) [tramadol], for which the inhibition in vivo at 100 µmol/kg in data set [1] (Rattus norvegicus, ip, 480 h, read-out: % effect (% return to normalcy of grip force)) was determined as 79 ± 5%. Further, the ED50 in data set [1] (Rattus norvegicus, ip, 480 h, read-out: CI95% of ED50) was 32 to 54 µmol/kg; in data set [1] (Rattus norvegicus, ip, 480 h, read-out: ED50, reversal of decreased grip force) it was 40 µmol/kg.
For `Nc1nnc(-c2cccc(Cl)c2Cl)c(N)n1` [Lamotrigine, lamotrigine], the inhibition in vivo at 100 µmol/kg in data set [1] (setting [2]) stood at 30 ± 3%.
For `NCC1(CC(=O)O)CCCCC1` [gabapentin], the inhibition in vivo at 500 µmol/kg in data set [1] (Rattus norvegicus, po, 480 h, read-out: % effect (% return to normalcy of grip force)) worked out at 61 ± 8%. Besides, the ED50 in data set [1] (Rattus norvegicus, po, 480 h, read-out: CI95% of ED50) is 100 to 295 µmol/kg; in data set [1] (Rattus norvegicus, po, 480 h, read-out: ED50, reversal of decreased grip force), 159 µmol/kg.
For `COc1ccc2c(c1)c(CC(=O)O)c(C)n2C(=O)c1ccc(Cl)cc1` [indomethacin], in data set [1] (setting [2]), the inhibition in vivo at 85 µmol/kg turned out to be 44 ± 6%.
Take `Cc1ccc(-c2cc(C(F)(F)F)nn2-c2ccc(S(N)(=O)=O)cc2)cc1` [celecoxib]: the entries for the “% effect, chronic dosing” value in data set [1] (10 μmol/kg p.o. b.i.d. for 12 days beginning 7 days after MIA) and in data set [1] (30 μmol/kg p.o. b.i.d. for 12 days beginning 7 days after MIA) were 33±3.0% and 67±3%, respectively. Moreover, the “% effect, acutely dosed group of chronic study” value in data set [1] (10 μmol/kg p.o., acute) is 9±3%; in data set [1] (30 μmol/kg p.o., acute) it was 42±3%. Further, the “% effect, acute positive control of chronic study” value in data set [1] (100 μmol/kg p.o., acute) turned out to be 88±4%. In addition, in data set [1] (setting [2]), the inhibition in vivo at 100 µmol/kg was 87 ± 6%. Also, the figures for the ED50 in data set [1] (setting [3]) and in data set [1] (setting [4]) were 16 to 42 µmol/kg and 27 µmol/kg, respectively.
Take `CN1CC[C@]23c4c5ccc(O)c4O[C@H]2[C@@H](O)C=C[C@H]3[C@H]1C5` [morphine]: in data set [1] (Rattus norvegicus, sc, 480 h, read-out: % effect (% return to normalcy of grip force)), the inhibition in vivo at 8 µmol/kg came to 34 ± 3%. The figures for the “reduction of grip force vs untreated naïve rats” value in the data set on naïve rats (8 μmol/kg (6 mg/kg) s.c.) and in the data set on naïve rats (13 μmol/kg (10 mg/kg) s.c.) were 13±3% and 52±3%, respectively.
Take `CC(C)Cc1ccc(C(C)C(=O)O)cc1` (stereo not shown) [ibuprofen]: the inhibition in vivo at 300 µmol/kg in data set [1] (setting [2]) was 29 ± 8%.
Turning to sodium monoiodoacetate [MIA], the “hind limb grip force (GF)” value with rats turned out to be 420.96 ± 25.07 g.
Take `CC(=O)Nc1ccc(O)cc1` [acetaminophen]: the inhibition in vivo at 300 µmol/kg in data set [1] (setting [2]) turned out to be 23 ± 11%.
